Reference: patent publication US11066447B2, “Aureobasidium derivatives and methods of synthesis” (AureoGen Biosciences, Inc., priority 2016, dated 2021)
≈ marks a conversion by molar mass, not a printed value. Like-named read-outs stand apart in the source and are kept apart here. Numbered stars: 1 amine (or outer) side, 2 acyl side, 3 side chain; on linkers, the order of the positions; unused ones are H or OH. Square brackets hold non-standard residues; d marks the D form. Peptide text beside a SMILES is read from it. X29 = CN([C@@H](Cc1cccc(-c2ccc(F)cc2)c1)C(=O)[*:2])[*:1]; X34 = CC[C@@H](C)[C@@H](O[*:1])C(=O)[*:2]; Hmp(2R,3S) = CC[C@H](C)[C@@H](O)C(=O)O; NMeVal(β-OH) = CN[C@H](C(=O)O)C(C)(C)O; NMeF = CN[C@@H](Cc1ccccc1)C(=O)O; aIle = CC[C@@H](C)[C@H](N)C(=O)O; NMeV = CN[C@H](C(=O)O)C(C)C

What was measured:
[1] = system: A. fumigatus MMX 6782 ATCC 13073; experiment: MIC/MEC assay (CLSI microdilution); format: cell-based
Description: (§1) Aureobasidin and test compounds (i.e., AbA derivatives of the present invention) were received from Kalexsyn, Inc. (Kalamazoo, Mich.) as powder and were stored at 4° C. until the day of assay. […] amphotericin was obtained from Sigma Aldrich and stored under like conditions. […] Ethanol (95%) was used as a solvent and diluent for all AbA compounds. Amphotericin B was tested from 0.06-64 μg/mL. Amphotericin B (Sigma Aldrich; St. Louis, Mo.; Cat No. A9528-100MG, Lot No. 120M4087) was dissolved and diluted with dimethylsulfoxide (DMSO; Sigma Aldrich; St. Louis, Mo.; Cat No. 472301 Lot No. SHBD2072V).
(§2) The solvents were added to the test agents and the stock solutions stood for approximately 1 hr at room temperature prior to use to auto sterilize. Stock solutions were prepared at 40× the desired top concentration in the test plate.
(§3) All of the test isolates were originally received from either the American Type Culture Collection (ATCC), clinical labs, or directly from Aureogen Biosciences. Organisms stored by Micromyx were cultured on agar medium appropriate to each organism. Colonies were picked by swab from the isolation plates and put into suspension in appropriate broth containing cryoprotectant. The suspensions were aliquoted into cryogenic vials and maintained at −80° C.
(§4) Prior to testing, Candida isolates were streaked from the frozen vials on Sabouraud dextrose agar. The yeast isolates were incubated for 48 hours at 35° C. before use. The fungal isolates were obtained from enumerated fungal stocks previously prepared at Micromyx and stored in phosphate buffered saline at 4° C.
(§5) Test Media. The medium employed for the MIC assay was RPMI-1640 medium from HyClone Laboratories (Logan, Utah; Lot No. AYB60287A). The medium was prepared according to Clinical and Laboratory Standards Institute (CLSI) guidelines (1, 2), and modified to include 0.002% Tween-80. Candida parapsilosis ATCC 22019 (MMX 2323) and Aspergillus fumigatus ATCC MYA-3626 (MMX 5280) were also tested without Tween-80 to provide data for the quality control of amphotericin B in accordance with CLSI (3) and to assess the effect of Tween-80 on the activity of the test agents.
(§6) Test Procedure. The MIC assay method followed the procedure described by CLSI (1, 2) and employed automated liquid handlers to conduct serial dilutions and liquid transfers. Automated liquid handlers included the Multidrop 384 (Labsystems, Helsinki, Finland), Biomek 2000 and Biomek FX (Beckman Coulter, Fullerton Calif.). The wells in columns 2-12 in standard 96-well microdilution plates (Costar 3795) were filled with 150 μl of the appropriate diluent (95% EtOH for investigational compounds, 100% DMSO for amphotericin B). These assay plates would become the ‘mother plates’ from which the assay ‘daughter plates’ would be prepared. The drugs (300 μL at 40× the desired top concentration in the test plates) were dispensed into the appropriate well in Column 1 of the mother plates. The Biomek 2000 was used to make two-fold serial dilutions through Column 11 in the “mother plate”. The wells of Column 12 contained no drug and served as the organism growth control wells.
(§7) The daughter plates were loaded with 185 μL per well on the Multidrop 384 with RPMI plus 0.002% Tween-80 or RPMI containing no Tween-80 for the testing of the two QC isolates. The daughter plates were prepared on the Biomek FX instrument which transferred 5 μL of drug solution from each well of a mother plate to each corresponding well of each daughter plate in a single step.
(§8) A standardized inoculum of each organism was prepared per CLSI methods (1, 2). For the Candida isolates, colonies were picked from the streak plate and a suspension was prepared in RPMI to equal a 0.5 McFarland standard. This suspension was diluted 1:100 in RPMI resulting in a final concentration of approximately 0.5-2.5×10^3 CFU/mL. […]

[2] = system: A. fumigatus MMX 6781 ATCC MYA-4609; experiment: MIC/MEC assay (CLSI microdilution); format: cell-based
Description: as §1, §2, §3, §4, §5, §6, §7, §8

A. fumigatus MMX 5944 = experiment: MIC/MEC assay (CLSI microdilution); format: cell-based
Description: as §1, §2, §3, §4, §5, §6, §7, §8

A. flavus MMX 5948 = experiment: MIC/MEC assay (CLSI microdilution); format: cell-based
Description: as §1, §2, §3, §4, §5, §6, §7, §8

[3] = system: A. niger MMX 0624 ATCC 16888; experiment: MIC/MEC assay (CLSI microdilution); format: cell-based
Description: as §1, §2, §3, §4, §5, §6, §7, §8

[4] = system: C. albicans MMX 2000 ATCC 10231; experiment: MIC assay (CLSI microdilution); format: cell-based
Description: as §1, §2, §3, §4, §5, §6, §7, §8

[5] = system: C. neoformans MMX 0634 ATCC 90112; experiment: MIC assay (CLSI microdilution); format: cell-based
Description: as §1, §2, §3, §4, §5, §6, §7, §8

[6] = system: C. parapsilosis MMX 2323 ATCC 22019; experiment: MIC assay (CLSI microdilution); format: cell-based, Candida parapsilosis
Description: as §1, §2, §3, §4, §5, §6, §7, §8

[7] = system: A. fumigatus MMX 5280 ATCC MYA-3626; experiment: MIC/MEC assay (CLSI microdilution); format: cell-based, Aspergillus fumigatus
Description: as §1, §2, §3, §4, §5, §6, §7, §8

[8] = RPMI plus 0.002% Tween-80, 48 hr
[9] = Aspergillus fumigatus, 48 h, RPMI plus 0.002% Tween-80, read-out: MIC

For `CC[C@@H](C)[C@@H]1NC(=O)[C@@H]2CCCN2C(=O)[C@H](Cc2ccccc2)N(C)C(=O)[C@H](Cc2ccccc2)NC(=O)[C@H](C(C)C)N(C)C(=O)[C@@H]([C@H](C)CC)OC(=O)[C@H](C(C)(C)O)N(C)C(=O)[C@H](CC(C)C)NC(=O)[C@H](C(C)C)N(C)C1=O` [Aureobasidin A, reference compound] (cyclo(F[NMeF]P[aIle][NMeV]L[NMeVal(β-OH)][X34][NMeV])), the MEC [1, 8] was 2 µg/mL, the MIC [1, 8] was over 64 µg/mL and the MEC [2, 8] was >64/>64 μg/mL. The MIC [2, 8] was >64/>64 μg/mL, the MEC (A. fumigatus MMX 5944; [8]) was 2 µg/mL and the MIC (A. fumigatus MMX 5944; [8]) was over 64 µg/mL. The MEC (A. flavus MMX 5948; [8]) was >64/>64 μg/mL, the MIC (A. flavus MMX 5948; [8]) was >64/>64 μg/mL and the MEC [3, 8] was >64/>64 μg/mL. The MIC [3, 8] was >64/>64 μg/mL, the MIC ([4]; RPMI plus 0.002% Tween-80) was at most 0.002 µg/mL and the MIC ([5]; RPMI plus 0.002% Tween-80) was 0.06 µg/mL. For the same molecule, the MIC ([6]; RPMI plus 0.002% Tween-80) was 0.008 µg/mL, the MIC ([6]; Without Tween-80) was 0.25 µg/mL (≈ 0.227 µM) and the MEC [7, 8] was >64/>64 μg/mL. For the same molecule, the MIC [7, 8] was >64/>64 μg/mL, the MEC ([7]; Without Tween-80, 48 hr) was >64/>64 μg/mL and the MIC ([7]; Without Tween-80, 48 hr) was >64/>64 μg/mL.

In the case of `CC[C@H](C)[C@@H]1NC(=O)[C@@H]2CCCN2C(=O)[C@H](Cc2cccc(-c3ccc(F)cc3)c2)N(C)C(=O)[C@H](Cc2ccccc2)NC(=O)[C@H](C(C)C)N(C)C(=O)[C@@H]([C@@H](C)CC)OC(=O)[C@H](C(C)(C)O)N(C)C(=O)[C@H](CC(C)C)NC(=O)[C@H](C(C)C)N(C)C1=O` [Compound 1] (cyclo(F[X29]PI[NMeV]L[NMeVal(β-OH)][Hmp(2R,3S)][NMeV])), the minimal effective concentration ([1]; Aspergillus fumigatus, ATCC13073, 48 h, RPMI plus 0.002% Tween-80, read-out: MEC) is reported as 0.5 µg/mL, the MIC ([1]; Aspergillus fumigatus, ATCC13073, 48 h, RPMI plus 0.002% Tween-80, read-out: MIC) is reported as over 64 µg/mL and the MIC [2, 9] is reported as over 64 µg/mL. It also gave a minimal effective concentration ([2]; Aspergillus fumigatus, RPMI plus 0.002% Tween-80, 48 hr) of 0.5 µg/mL, a minimal effective concentration (A. fumigatus MMX 5944; Aspergillus fumigatus, MMX5944, 48 h, RPMI plus 0.002% Tween-80) of 0.5 µg/mL and an MIC (A. fumigatus MMX 5944; Aspergillus fumigatus, MMX5944, 48 h, RPMI plus 0.002% Tween-80, read-out: MIC) of over 64 µg/mL. The minimal effective concentration (A. flavus MMX 5948; Aspergillus flavus, MMX5948, 48 h, RPMI plus 0.002% Tween-80) was 1 µg/mL, the MIC (A. flavus MMX 5948; Aspergillus flavus, MMX5948, 48 h, RPMI plus 0.002% Tween-80, read-out: MIC) was over 64 µg/mL and the minimal effective concentration ([3]; Aspergillus niger, ATCC16888, 48 h, RPMI plus 0.002% Tween-80, read-out: MEC) was 0.25 µg/mL. For the same molecule, the MIC ([3]; Aspergillus niger, ATCC16888, 48 h, RPMI plus 0.002% Tween-80, read-out: MIC) was 0.25 µg/mL, the MIC ([4]; Candida albicans, ATCC10231, RPMI plus 0.002% Tween-80, read-out: MIC) was 0.015 µg/mL and the MIC ([5]; Cryptococcus neoformans, ATCC90112, RPMI plus 0.002% Tween-80, read-out: MIC) was 0.12 µg/mL. For the same molecule, the MIC ([6]; ATCC22019, RPMI plus 0.002% Tween-80, read-out: MIC) was 0.12 µg/mL, the MIC ([6]; ATCC22019, Without Tween-80, read-out: MIC) was 1 µg/mL (≈ 0.836 µM) and the minimal effective concentration ([7]; Aspergillus fumigatus, 48 h, RPMI plus 0.002% Tween-80, read-out: MEC) was 0.5 µg/mL. The MIC [7, 9] was over 64 µg/mL, the minimal effective concentration ([7]; Aspergillus fumigatus, 48 h, Without Tween-80, read-out: MEC) was 2 µg/mL and the MIC ([7]; Aspergillus fumigatus, 48 h, Without Tween-80, read-out: MIC) was over 64 µg/mL.
